Here are results for twelve molecules from patent US11147816B2, “Composition for inducing differentiation and protection of neural stem cells and method for inducing neuro-regeneration using the same composition” (GENUV Inc., priority 2016, dated 2021).

For data set [1], the system named is mouse embryonic neural stem cells. Briefly: Morphology analysis of NSC differentiation in mouse embryonic neural stem cells (Examples 1, 6). In kind it is cell-based. As to conditions: for concentration at which differentiation morphology starts: tested at 0.1, 1.0, 10 μM. The procedure:
Neural stem cells were isolated from the brain of a day 14.5 mouse embryo, treated with 10 ng/ml human basic fibroblast growth factor (bFGF) (Peprotech, Princeton, NG, cat#.100-18B) and 20 ng/ml human epidermal growth factor (EGF) (Peprotech, cat#. AF-100-15) in a N2 culture medium, and cultured in suspension in a 25 cm2 flask (Nunc, Pittsburgh, Pa.) for 4 days. Formation of neurospheres was observed after 2 days.
In order to isolate single cells, 6-well plates were prepared the day before by treating the wells with 15 μg/ml poly-L-ornithine (Sigma, St. Louis, Mo., cat#.P2533) solution and incubating overnight at 37° C. for coating. The day of the single cell isolation, poly-L-ornithine solution was removed, the plates were washed with PBS three times, and 10 μg/ml fibronectin (Gibco, Waltham, Mass., cat#. 33016015) solution was added and incubated at 37° C. for 2 hours for coating.
Various concentrations of the compound of [Formula 1] […]

Data set [2] relates to mouse adult neural stem cells. As to conditions: for concentration at which the differentiation-inducing effect starts: no amyloid-beta; for cell protection and NSC differentiation under amyloid-beta cytotoxicity: 10 μM amyloid-beta, each at its optimal concentration (AS703026 10, AZD8330 1, PD318088 1, binimetinib 10, refametinib 1, PD0325901 10, RO5126766 10 μM); for cell toxicity / cell death (morphology): AS703026 10 μM. The procedure:
NSC were isolated from the subventricular zone of week 8 mouse brain, treated with 20 ng/ml human basic fibroblast growth factor (bFGF) and 20 ng/ml human epidermal growth factor (EGF) in an IPM medium, and cultured as a suspension in 24-well plates for 7 days.
Two days before the isolation of single cells, 6-well plates were prepared by treating the wells with 10 μg/ml poly-L-ornithine solution and incubating overnight at room temperature for coating. The next day, poly-L-ornithine solution was removed and the plates were washed 3 times with sterilized triple distilled water. […] The culture solution used is N2 culture medium (supplemented with 20 ng/ml bFGF and 20 ng/ml EGF). Right before seeding, the coating solution was suctioned out, and the single cells were uniformly seeded into the culture plate before the plate dried up. Cells were allowed to attach to the plates for about one minute, and after checking that cells were sufficiently attached, an additional 1.5 ml of culture medium (N2 culture medium with 20 ng/ml bFGF and 20 ng/ml EGF) was added to the cells and cultured in a 37° C. incubator for 24 hours.
Wells not treated with amyloid-beta were left to use as negative controls.
Gibco's (Waltham, Mass.) human Aβ (1-42) was purchased to use for the amyloid-beta (Aβ), and the following process was followed to create oligomers. First, amyloid-beta was dissolved in 100% HFIP (1,1,1,3,3,3-hexafluoro-2-propanol) (Sigma, cat#.105228) to obtain a concentration of 1 mg/ml and vortexed at room temperature for 1 hour. Then, it was dried for 10 minutes in a speed Vac, after which DMSO (Sigma, cat#.D2650) was added to bring the concentration to 5 mM and then lightly vortexed at room temperature for 10 minutes. […] The solution was incubated at 4° C. for 24 hours and then added into the cultured cells.
The NCSs were cultured with the daily addition of EGF, bFGF, amyloid-beta, and test materials for 4 days.

Data set [3] deals with MEK 1, MEK2. The settings on record: literature reference; cited from earlier work.
Data set [4] concerns mouse embryonic neural stem cells. Briefly: Immunocytochemistry analysis, Tuj1 and DAPI staining (Example 3). It is filed as cell-based. The settings on record: 4 days. The procedure: Tuj1 (Neuron specific class III beta-tubulin) is a neuron specific marker protein, which was conjugated to rhodamine to show fluorescent red, while DAPI binds to the cell DNA and stains the cell nuclei fluorescent blue. […] The medium was removed and the cells were washed with PBS. After fixing with 10% formaldehyde (Sigma cat#. HT501128) at room temperature for 10 minutes, they were washed again with PBS. They were permeabilized with 0.2% Triton X-100 (Sigma, cat#. 93443) at room temperature for 15 minutes, washed with PBS, and incubated with 10% BSA (Sigma, cat#. A2153)+1% normal goat serum (Vector lab, Burlingame, Calif., cat#. S1000) at room temperature for 1 hour. […] The solution was removed, washed with PBS, and incubated at room temperature for 1 hour with the secondary antibody (rhodamine-conjugated antibody) diluted in 1% BSA+1% normal goat serum at a ratio of 1:200. Then, the cells were washed with PBS, incubated with 5 μg/ml DAPI (Sigma, cat#. D9542) for 5 minutes, washed with PBS again, and mounted on a slide glass for analysis with a fluorescent microscope.

The test system is the same in data set [5]. Briefly: qRT-PCR of relative mRNA expression of neuronal markers in mouse embryonic NSC (Examples 4-1, 4-2, 6). In kind it is cell-based. The settings on record: 10 μM (10000 nM). The procedure: Isopropanol (Ducsan, GyunggiDo, Korea, cat#. 67-63-0) was added and mixed for RNA isolation, then centrifuged again to remove the supernatant and obtain the pellet. The RNA pellet was resuspended in 75% ethanol (Ducsan, cat#. 64-17-15), centrifuged, and the supernatant removed. The pellet was then resuspended in sterilized triple distilled water to obtain the mRNA, incubated for 10 minutes at 55° C., and stored at −80° C.
Sterilized triple distilled water, […] oligo dT, and 1 mM dNTP were added to the RNA and incubated for 5 minutes at 65° C. This was followed by the addition of 5X First-strand buffer, 10 mM DTT, and M-MLV reverse transcriptase and incubated at 42° C. for 1 hour, then at 72° C. for 15 minutes, and at 4° C. for 30 minutes. The synthesized cDNA was stored at −20° C.
The term relative mRNA expression level signifies that in order to normalize each group's total RNA level, the mRNA expression level of each differentiation marker is divided by the expression level of GAPDH whose expression level is fairly constant across cells, and then the values of each test material are compared with those of the controls (undifferentiated NSC) in each group.

In data set [6] the target is MEK1 (Homo sapiens (Human), UniProt Q02750). The settings on record: cited from earlier work.
For data set [7], the target named is MEK2 (Homo sapiens (Human), UniProt P36507). The settings on record: cited from earlier work.
[8] abbreviates: 1.0 μM and 10 μM, day 2 of culture.
[9] abbreviates: trametinib 10 nM, 100 nM, memantine 5 μM, 10 μM, 4 days.
[10] abbreviates: 1.0 nM and 10 nM, day 2 of culture.

Entries after “also recorded” stand apart in the source; their conditions may differ. Read-outs that look alike come from different tables or passages of the source. Some results are limits rather than exact numbers.

Chain of MEK1 (Q02750 whole entry, species assumed): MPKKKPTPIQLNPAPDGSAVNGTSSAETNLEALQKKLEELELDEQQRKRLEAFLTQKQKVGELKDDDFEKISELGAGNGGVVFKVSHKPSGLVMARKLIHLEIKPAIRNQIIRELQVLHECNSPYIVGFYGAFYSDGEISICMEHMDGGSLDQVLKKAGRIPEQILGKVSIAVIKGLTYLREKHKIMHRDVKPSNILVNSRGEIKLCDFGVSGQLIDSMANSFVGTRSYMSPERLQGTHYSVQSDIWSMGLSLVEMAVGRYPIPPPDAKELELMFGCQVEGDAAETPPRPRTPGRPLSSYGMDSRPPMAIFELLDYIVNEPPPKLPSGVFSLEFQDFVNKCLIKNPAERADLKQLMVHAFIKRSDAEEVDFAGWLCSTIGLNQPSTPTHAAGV
Chain of MEK2 (P36507 whole entry, species assumed): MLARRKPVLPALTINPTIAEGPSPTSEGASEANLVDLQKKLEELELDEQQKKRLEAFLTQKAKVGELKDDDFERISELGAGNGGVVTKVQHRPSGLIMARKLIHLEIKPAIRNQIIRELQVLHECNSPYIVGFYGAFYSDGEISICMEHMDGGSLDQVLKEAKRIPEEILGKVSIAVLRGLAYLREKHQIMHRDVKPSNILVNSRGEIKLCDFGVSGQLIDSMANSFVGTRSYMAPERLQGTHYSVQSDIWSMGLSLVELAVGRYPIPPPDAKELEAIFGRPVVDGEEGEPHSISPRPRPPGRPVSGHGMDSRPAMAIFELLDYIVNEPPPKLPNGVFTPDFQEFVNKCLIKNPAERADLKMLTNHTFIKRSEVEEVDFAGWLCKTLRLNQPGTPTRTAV

Regarding `O=C(NOCC1CC1)c1ccc(F)c(F)c1Nc1ccc(I)cc1Cl` [PD184352], the “NSC differentiation-inducing effect (morphology)” value in data set [1] (0.1 μM, day 2 of culture) was “only a weak NSC differentiation-inducing effect”. Also, the “cell death (morphology)” value in data set [1] (setting [8]) was “all the cells died”.
Take `O=C(NOC[C@H](O)CO)c1ccc(F)c(F)c1Nc1ccc(I)cc1F` [PD0325901]: the “concentration at which the differentiation-inducing effect starts” value in data set [2] (day 2 of culture) is 0.1 µM.
Consider `Cn1cnc2c(F)c(Nc3ccc(Br)cc3F)c(C(=O)NOCCO)cc21` [binimetinib], for which, in data set [1] (day 2 of culture), the “concentration at which differentiation morphology starts” value was found to be 10 μM. For the same molecule, the IC50 in data set [3] was 12 nM. In data set [2] (day 2), the “cell protection and NSC differentiation under amyloid-beta cytotoxicity” value (from here on “cell protection and NSC differentiation”) is “provided cell protection and induced the differentiation of NSC”.
Take `COc1cc(F)c(F)c(Nc2ccc(I)cc2F)c1NS(=O)(=O)C1(C[C@H](O)CO)CC1` [refametinib]: the “concentration at which differentiation morphology starts” value in data set [1] (day 2 of culture) is 1.0 μM. In addition, the “cell protection and NSC differentiation” value in data set [2] (day 2) was “provided cell protection and induced the differentiation of NSC”.
For the molecule `CC12CC3CC(C)(C1)CC(N)(C3)C2` [memantine], the “cell toxicity / cell death (morphology)” value in data set [2] (setting [9]) is “death of neural stem cells”. The “differentiation of NSC into neurons (morphology)” value in data set [2] (with or without 10 μM oligomeric Aβ(1-42), trametinib 10 nM, 100 nM, memantine 5 μM, 10 μM, 4 days) is on record as “the differentiation of NSC into neurons was not observed”.
With `Cc1cc(C(=O)NOCCO)c(Nc2ccc(I)cc2F)n(C)c1=O` [AZD8330], in data set [1] (day 2 of culture), the “concentration at which differentiation morphology starts” value worked out at 1.0 μM. For the same molecule, in data set [2] (day 2), the “cell protection and NSC differentiation” value is “provided cell protection and induced the differentiation of NSC”.
For the molecule `CNS(=O)(=O)Nc1nccc(Cc2c(C)c3ccc(Oc4ncccn4)cc3oc2=O)c1F` [RO5126766], in data set [2] (day 2), the “cell protection and NSC differentiation” value was “provided cell protection and induced the differentiation of NSC”. Further, the “concentration at which the differentiation-inducing effect starts” value in data set [2] (day 2 of culture) came out at 1.0 µM.
On to `N#CC(=C(/N)Sc1ccccc1N)/C(C#N)=C(\N)Sc1ccccc1N` [U0126], for which the “cell proliferation (morphology)” value in data set [2] (0.1 μM and 1.0 μM, day 2 of culture) was “inhibition of cell proliferation”. The “differentiation-inducing effect (morphology)” value in data set [2] (2.5 μM, day 2 of culture) is reported as “did not show any clear differentiation-inducing effect”. The “cytotoxicity (morphology)” value in data set [2] (10 μM, day 2 of culture) is given as “showed cell cytotoxicity”. Further, in data set [2] (all concentrations tested), the “NSC differentiation-inducing effect (morphology)” value is reported as “failed to show any NSC differentiation-inducing effect”.
`O=C(NC[C@H](O)CO)c1ccncc1Nc1ccc(I)cc1F` [AS703026]: in data set [1] (added daily, 4 days of culture), the “concentration required for neuronal differentiation to initiate” value amounted to 1.0 µM. The “concentration at which differentiation morphology starts” value in data set [1] (day 2 of culture) is recorded as 10 μM. For the same molecule, the “neuron differentiation by Tuj1 staining” value in data set [4] (0.1 μM) is “no differentiation was observed”; in data set [4] (1.0 μM) it was “neuron differentiation occurs at this concentration, albeit only to a marginal extent”. In data set [5], the “Tuj1 and TH mRNA expression compared with trametinib” value is given as “comparable to those of 25 nM trametinib”. In addition, in data set [2] (day 2), the “cell protection and NSC differentiation” value is “provided cell protection and induced the differentiation of NSC”. The “concentration required for neuronal differentiation” value in data set [2] (regardless of 10 μM amyloid-beta treatment, 4 days) was 10 µM. In addition, the “cell toxicity / cell death (morphology)” value in data set [2] (setting [9]) is listed as “did not elicit cell toxicity”.
Regarding `O=C(c1ccc(F)c(F)c1Nc1ccc(I)cc1F)N1CC(O)([C@@H]2CCCCN2)C1` [cobimetinib], in data set [6] (Molecules 2017;22:1551), the “selectivity toward MEK1 compared with MEK2” value is given as ≥ 100 ×. In addition, the IC50 was 0.95 nM in data set [6] and 199 nM in data set [7]. For the same molecule, in data set [2] (10 μM, regardless of amyloid-beta, day 2), the “differentiation of adult NSC (morphology)” value is reported as “did not induce the differentiation of adult NSC; also recorded: does not induce the differentiation of mouse adult neural stem cells”.
BI847325: in data set [2] (setting [10]), the “cell proliferation (morphology)” value is “cell proliferation seemed to be somewhat inhibited” and the “differentiation-inducing effect (morphology)” value is on record as “a differentiation-inducing effect was not observed”. The “differentiation-inducing effect (morphology)” value in data set [2] (0.1 μM, day 2 of culture) is “only a weak differentiation-inducing effect”. Further, the “cell death (morphology)” value in data set [2] (setting [8]) was “all the cells died”.
Take `O=C(NOCC(O)CO)c1cc(Br)c(F)c(F)c1Nc1ccc(I)cc1F` (stereo not drawn) [PD318088]: the “concentration at which differentiation morphology starts” value in data set [1] (day 2 of culture) is on record as 1.0 μM. Further, the “cell protection and NSC differentiation” value in data set [2] (day 2) is “provided cell protection and induced the differentiation of NSC”.
